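Growth conditions: 96-well plates. Treatment: test compound, 48 hours, 5 concentrations. Analysis: linear interpolation between bracketing concentrations; unreached endpoints set to highest concentration. TGI marks complete inhibition of growth.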
Legend:
Assay in all cases: inhibition of tumour cell growth, NCI panel, 48 h
MDA-MB-231 breast = system: MDA-MB-231 breast
ACHN renal = system: ACHN renal
TK-10 renal = system: TK-10 renal
LOX IMVI melanoma = system: LOX IMVI melanoma
SW-620 colon = system: SW-620 colon
PC-3 prostate = system: PC-3 prostate
UO-31 renal = system: UO-31 renal
MALME-3M melanoma = system: MALME-3M melanoma
MOLT-4 leukemia = system: MOLT-4 leukemia
COLO 205 colon = system: COLO 205 colon
CCRF-CEM leukemia = system: CCRF-CEM leukemia
BT-549 breast = system: BT-549 breast
A498 renal = system: A498 renal
K-562 leukemia = system: K-562 leukemia
U251 CNS = system: U251 CNS
EKVX NSCLC = system: EKVX NSCLC
UACC-62 melanoma = system: UACC-62 melanoma
SR leukemia = system: SR leukemia
RXF 393 renal = system: RXF 393 renal
M14 melanoma = system: M14 melanoma
KM12 colon = system: KM12 colon
OVCAR-4 ovarian = system: OVCAR-4 ovarian
OVCAR-8 ovarian = system: OVCAR-8 ovarian
NCI-H522 lung = system: NCI-H522 lung
HOP-92 NSCLC = system: HOP-92 NSCLC
UACC-257 melanoma = system: UACC-257 melanoma
MDA-MB-435 = system: MDA-MB-435
HOP-62 NSCLC = system: HOP-62 NSCLC
HCT-15 colon = system: HCT-15 colon
NCI-H23 lung = system: NCI-H23 lung
A549 NSCLC = system: A549 NSCLC
SK-MEL-2 melanoma = system: SK-MEL-2 melanoma
MDA-N = system: MDA-N
HCT-116 colon = system: HCT-116 colon
HL-60(TB) leukemia = system: HL-60(TB) leukemia
SK-MEL-5 melanoma = system: SK-MEL-5 melanoma
HT29 colon = system: HT29 colon
DU-145 prostate = system: DU-145 prostate
T-47D breast = system: T-47D breast
SF-539 CNS = system: SF-539 CNS
SK-OV-3 ovarian = system: SK-OV-3 ovarian
OVCAR-5 ovarian = system: OVCAR-5 ovarian
IGROV1 ovarian = system: IGROV1 ovarian
SN12C renal = system: SN12C renal
SNB-19 CNS = system: SNB-19 CNS
NCI-H460 lung = system: NCI-H460 lung
MCF7 breast = system: MCF7 breast
SF-268 CNS = system: SF-268 CNS
SNB-75 CNS = system: SNB-75 CNS
HCC-2998 colon = system: HCC-2998 colon
HS 578T breast = system: HS 578T breast
786-0 renal = system: 786-0 renal
NCI/ADR-RES ovarian = system: NCI/ADR-RES ovarian
SK-MEL-28 melanoma = system: SK-MEL-28 melanoma
SF-295 CNS = system: SF-295 CNS
CAKI-1 renal = system: CAKI-1 renal
OVCAR-3 ovarian = system: OVCAR-3 ovarian
NCI-H226 lung = system: NCI-H226 lung
RPMI-8226 leukemia = system: RPMI-8226 leukemia

N#Cc1ccc(Oc2nc3ccc(C(F)(F)F)cc3nc2-c2ccccc2)cc1
TGI (MDA-MB-231 breast): 36.8 µM | TGI (ACHN renal): 28.4 µM | TGI (TK-10 renal): 33.6 µM | TGI (LOX IMVI melanoma): 91.1 µM | TGI (SW-620 colon): 35.7 µM | TGI (PC-3 prostate): 27 µM | TGI (UO-31 renal): 46.1 µM | TGI (MALME-3M melanoma): 45.3 µM | TGI (MOLT-4 leukemia): 43.6 µM | TGI (COLO 205 colon): 50.9 µM | TGI (CCRF-CEM leukemia): 44.7 µM | TGI (BT-549 breast): > 100 µM | TGI (A498 renal): 31.2 µM | TGI (K-562 leukemia): 55.9 µM | TGI (U251 CNS): 30.9 µM | TGI (EKVX NSCLC): 32.5 µM | TGI (UACC-62 melanoma): > 100 µM | TGI (SR leukemia): 9.86 µM | TGI (RXF 393 renal): 77.8 µM | TGI (M14 melanoma): 29.7 µM | TGI (KM12 colon): 48.6 µM | TGI (OVCAR-4 ovarian): 32.4 µM | TGI (OVCAR-8 ovarian): 34.4 µM | TGI (NCI-H522 lung): 32.2 µM | TGI (HOP-92 NSCLC): 27.5 µM | TGI (UACC-257 melanoma): 54.7 µM | TGI (MDA-MB-435): 33.8 µM | TGI (HOP-62 NSCLC): 36 µM | TGI (HCT-15 colon): 28.1 µM | TGI (NCI-H23 lung): 32 µM | TGI (A549 NSCLC): 35.9 µM | TGI (SK-MEL-2 melanoma): 36.9 µM | TGI (MDA-N): 57.8 µM | TGI (HCT-116 colon): 28.6 µM | TGI (HL-60(TB) leukemia): 46.3 µM | TGI (SK-MEL-5 melanoma): 46.5 µM | TGI (HT29 colon): 34.5 µM | TGI (DU-145 prostate): 34 µM | TGI (T-47D breast): 38.5 µM | TGI (SF-539 CNS): 89.3 µM | TGI (SK-OV-3 ovarian): 26.9 µM | TGI (OVCAR-5 ovarian): 26.2 µM | TGI (IGROV1 ovarian): 41.3 µM | TGI (SN12C renal): 40.9 µM | TGI (SNB-19 CNS): 41.2 µM | TGI (NCI-H460 lung): 31.4 µM | TGI (MCF7 breast): 44.1 µM | TGI (SF-268 CNS): 76.4 µM | TGI (SNB-75 CNS): 32.1 µM | TGI (HCC-2998 colon): 32.3 µM | TGI (HS 578T breast): 44.5 µM | TGI (786-0 renal): 30.8 µM | TGI (NCI/ADR-RES ovarian): 37.1 µM | TGI (SK-MEL-28 melanoma): 30.2 µM | TGI (SF-295 CNS): 58.2 µM | TGI (CAKI-1 renal): 44.3 µM | TGI (OVCAR-3 ovarian): 44.8 µM

Cc1nnc(-n2c(O)cc(=O)n(-c3ccccc3)c2=S)nc1/C=C/c1ccc(N(C)C)cc1
TGI (MDA-MB-231 breast): > 55.7 µM | TGI (ACHN renal): > 49.5 µM | TGI (TK-10 renal): > 56.5 µM | TGI (LOX IMVI melanoma): 17.5 µM | TGI (SW-620 colon): > 52.9 µM | TGI (PC-3 prostate): > 46.2 µM | TGI (UO-31 renal): 19.9 µM | TGI (MALME-3M melanoma): 8.38 µM | TGI (MOLT-4 leukemia): > 100 µM | TGI (COLO 205 colon): 21.2 µM | TGI (CCRF-CEM leukemia): > 100 µM | TGI (BT-549 breast): > 70.7 µM | TGI (A498 renal): > 55 µM | TGI (K-562 leukemia): 49.9 µM | TGI (U251 CNS): > 46.4 µM | TGI (EKVX NSCLC): > 100 µM | TGI (UACC-62 melanoma): > 46.8 µM | TGI (SR leukemia): > 100 µM | TGI (RXF 393 renal): > 58.5 µM | TGI (M14 melanoma): > 100 µM | TGI (KM12 colon): 21 µM | TGI (OVCAR-4 ovarian): > 58.1 µM | TGI (OVCAR-8 ovarian): > 80.2 µM | TGI (NCI-H522 lung): 8.33 µM | TGI (NCI-H226 lung): > 100 µM | TGI (HOP-92 NSCLC): > 71.9 µM | TGI (UACC-257 melanoma): > 55.8 µM | TGI (MDA-MB-435): 23.8 µM | TGI (HOP-62 NSCLC): > 100 µM | TGI (HCT-15 colon): 13.5 µM | TGI (NCI-H23 lung): 69.4 µM | TGI (A549 NSCLC): > 59 µM | TGI (SK-MEL-2 melanoma): 41.8 µM | TGI (MDA-N): > 100 µM | TGI (HCT-116 colon): > 55.7 µM | TGI (HL-60(TB) leukemia): 7.1 µM | TGI (SK-MEL-5 melanoma): 21.9 µM | TGI (HT29 colon): > 100 µM | TGI (DU-145 prostate): > 90.1 µM | TGI (T-47D breast): > 60.7 µM | TGI (SK-OV-3 ovarian): > 72 µM | TGI (OVCAR-5 ovarian): > 75.3 µM | TGI (IGROV1 ovarian): 34.2 µM | TGI (SN12C renal): > 96.1 µM | TGI (SNB-19 CNS): > 63 µM | TGI (RPMI-8226 leukemia): > 100 µM | TGI (NCI-H460 lung): > 54.8 µM | TGI (MCF7 breast): > 40.9 µM | TGI (SF-268 CNS): > 53.8 µM | TGI (SNB-75 CNS): 21.1 µM | TGI (HCC-2998 colon): 22.7 µM | TGI (HS 578T breast): 56.3 µM | TGI (786-0 renal): > 59.4 µM | TGI (NCI/ADR-RES ovarian): > 100 µM | TGI (SK-MEL-28 melanoma): > 50.6 µM | TGI (SF-295 CNS): > 62.2 µM | TGI (CAKI-1 renal): > 57 µM
